10 compounds from patent publication US20100222332A1, “PYRAZOLO-PYRAZINES DERIVATIVES USED AS G PROTEIN INHIBITORS” (Ipsen Pharma S.A.S., priority 2007, published 2010) can be followed below.

Where a name gives a salt, the structure may show the parent alone. Read-outs that look alike come from different tables or passages of the source.

What all share (format): cell-based
In assay [1] the test system is DU145 (human prostate cancer cells). Put plainly: Anti-proliferative activity on DU145 cell line (WST1 colorimetric test). Particulars: DU-145, treated for 96 hours, read-out: IC50 on the cell proliferation of the DU145 lines. On the procedure:
(§1) By way of example, the effect of a treatment on three human cell lines DU145, LNCaP and A2058 with the compounds of the examples described previously will be studied. The cell lines DU145 and LNCaP (human prostate cancer cells) and A2058 (human melanoma cancer cells) were acquired from the American Tissue Culture Collection (Rockville, Md., USA). The cells placed in 80 μl of Dulbecco's Modified Eagle medium (Gibco-Brl, Cergy-Pontoise, France) completed with 10% foetal calf serum inactivated by heating (Gibco-Brl, Cergy-Pontoise, France), 50000 units/l of penicillin and 50 mg/l streptomycin (Gibco-Brl, Cergy-Pontoise, France), and 2 mM of glutamin (Gibco-Brl, Cergy-Pontoise, France) were seeded on a 96-well plate on day 0. The cells were treated on day 1 for 96 hours with increasing concentrations of each of the compounds to be tested up to 10 μM. At the end of this period, the quantification of the cell proliferation is evaluated by a colorimetric test based on the cleavage of the tetrazolium salt WST1 by mitochondrial dehydrogenases in the viable cells leading to the formation of formazan (Boehringer Mannheim, Meylan, France). These tests are carried out in duplicate with 8 determinations per tested concentration. For each compound to be tested, the values included in the linear part of the sigmoid were retained for linear regression analysis and used in order to estimate the inhibitory concentration IC50. The products are solubilized in dimethylsulphoxide (DMSO) at 10^−2 M and finally used in culture with 0.1% DMSO.

Assay [2] deals with LNCaP (human prostate cancer cells). Briefly: Anti-proliferative activity on LNCaP cell line (WST1 colorimetric test). The note with it: treated for 96 hours, read-out: IC50 on the cell proliferation of the LNCaP lines. The protocol: as §1
In general terms: Tetrazolium assays rely on reduction of a dye to a coloured formazan, in cell work by metabolically active cells.

Assay [3] deals with A2058 (human melanoma cancer cells). Briefly: Anti-proliferative activity on A2058 cell line (WST1 colorimetric test). Particulars: treated for 96 hours, read-out: IC50 on the cell proliferation of the A2058 lines. On the procedure:
as §1

`N[C@@H](CSSC[C@H](N)C(=O)N1CCn2nc(-c3ccccc3)cc2C1CC1CCCCC1)C(=O)N1CCn2nc(-c3ccccc3)cc2C1CC1CCCCC1` (mixture of isomers) [Example 12, (2R)-3-({(2R)-2-amino-3-[(4RS)-4-(cyclohexylmethyl)-2-phenyl-6,7-dihydropyrazolo[1,5-a]pyrazin-5(4H)-yl]-3-oxopropyl}dithio)-1-[(4RS)-4-(cyclohexylmethyl)-2-phenyl-6,7-dihydropyrazolo[1,5-a]pyrazin-5(4H)-yl]-1-oxopropan-2-amine hydrochloride]: the IC50 in assay [1] is at most 10 µM; in assay [2], at most 1 µM; in assay [3] (bound given in mM), at most 0.01 mM.

For `N[C@@H](CSSC[C@H](N)C(=O)N1CCn2nc(-c3ccccc3)cc2C1CCc1ccccc1)C(=O)N1CCn2nc(-c3ccccc3)cc2C1CCc1ccccc1` (mixture of isomers) [Example 13, (2R)-3-({(2R)-2-amino-3-oxo-3-[(4RS)-2-phenyl-4-(2-phenylethyl)-6,7-dihydropyrazolo[1,5-a]pyrazin-5(4H)-yl]propyl}dithio)-1-oxo-1-[(4RS)-2-phenyl-4-(2-phenylethyl)-6,7-dihydropyrazolo[1,5-a]pyrazin-5(4H)-yl]propan-2-amine hydrochloride], the IC50 in assay [1] (unit inferred) is at most 15 µM; in assay [2], at most 1 µM; in assay [3] (bound given in mM), at most 0.01 mM.

On to `N[C@@H](CSSC[C@H](N)C(=O)N1CCn2nc(-c3ccc4c(c3)OCO4)cc2C1CCc1ccccc1)C(=O)N1CCn2nc(-c3ccc4c(c3)OCO4)cc2C1CCc1ccccc1` (mixture of isomers) [Example 16, (2R)-3-({(2R)-2-amino-3-[(4RS)-2-(1,3-benzodioxol-5-yl)-4-(2-phenylethyl)-6,7-dihydropyrazolo[1,5-a]pyrazin-5(4H)-yl]-3-oxopropyl}dithio)-1-[(4RS)-2-(1,3-benzodioxol-5-yl)-4-(2-phenylethyl)-6,7-dihydropyrazolo[1,5-a]pyrazin-5(4H)-yl]-1-oxopropan-2-amine hydrochloride], for which the IC50 was at most 20 µM in assay [1], at most 10 µM in assay [2] and at most 0.03 mM in assay [3].

For the compound `COc1cc(-c2cc3n(n2)CCN(C(=O)[C@@H](N)CSSC[C@H](N)C(=O)N2CCn4nc(-c5cc(OC)c(OC)c(OC)c5)cc4C2CCc2ccccc2)C3CCc2ccccc2)cc(OC)c1OC` (mixture of isomers) [Example 17, (2R)-3-({(2R)-2-amino-3-oxo-3-[(4RS)-4-(2-phenylethyl)-2-(3,4,5-trimethoxyphenyl)-6,7-dihydropyrazolo[1,5-a]pyrazin-5(4H)-yl]propyl}dithio)-1-oxo-1-[(4RS)-4-(2-phenylethyl)-2-(3,4,5-trimethoxyphenyl)-6,7-dihydropyrazolo[1,5-a]pyrazin-5(4H)-yl]propan-2-amine hydrochloride], the IC50 in assay [1] (unit inferred) is at most 15 µM; in assay [2], at most 10 µM; in assay [3] it was at most 0.02 mM.

Regarding `N[C@@H](CSSC[C@H](N)C(=O)N1CCn2nc(-c3cccs3)cc2C1CCc1ccccc1)C(=O)N1CCn2nc(-c3cccs3)cc2C1CCc1ccccc1` (mixture of isomers) [Example 18, (2R)-3-({(2R)-2-amino-3-oxo-3-[(4RS)-4-(2-phenylethyl)-2-(2-thienyl)-6,7-dihydropyrazolo[1,5-a]pyrazin-5(4H)-yl]propyl}dithio)-1-oxo-1-[(4RS)-4-(2-phenylethyl)-2-(2-thienyl)-6,7-dihydropyrazolo[1,5-a]pyrazin-5(4H)-yl]propan-2-amine hydrochloride], the IC50 in assay [1] (unit inferred) was at most 15 µM; in assay [2] it was at most 5 µM; in assay [3], at most 0.02 mM.

In the case of `N[C@@H](CSSC[C@H](N)C(=O)N1CCn2nc(-c3ccco3)cc2C1CCc1ccccc1)C(=O)N1CCn2nc(-c3ccco3)cc2C1CCc1ccccc1` (mixture of isomers) [Example 19, (2R)-3-({(2R)-2-amino-3-[(4RS)-2-(2-furyl)-4-(2-phenylethyl)-6,7-dihydropyrazolo[1,5-a]pyrazin-5(4H)-yl]-3-oxopropyl}dithio)-1-[(4RS)-2-(2-furyl)-4-(2-phenylethyl)-6,7-dihydropyrazolo[1,5-a]pyrazin-5(4H)-yl]-1-oxopropan-2-amine hydrochloride], the IC50 in assay [1] (unit inferred) is at most 15 µM; in assay [2] it was at most 5 µM; in assay [3], at most 0.02 mM.

In the case of `CCCCCC1c2cc(-c3ccccc3)nn2CCN1C(=O)[C@@H](N)CSSC[C@H](N)C(=O)N1CCn2nc(-c3ccccc3)cc2C1CCCCC` (mixture of isomers) [Example 20, (2R)-3-({(2R)-2-amino-3-oxo-3-[(4RS)-4-pentyl-2-phenyl-6,7-dihydropyrazolo[1,5-a]pyrazin-5(4H)-yl]propyl}dithio)-1-oxo-1-[(4RS)-4-pentyl-2-phenyl-6,7-dihydropyrazolo[1,5-a]pyrazin-5(4H)-yl]propan-2-amine hydrochloride], the IC50 was at most 15 µM in assay [1] (unit inferred), at most 10 µM in assay [2] and at most 0.01 mM in assay [3] (bound given in mM).

Take `CCCCC1c2cc(-c3ccccc3)nn2CCN1C(=O)[C@@H](N)CSSC[C@H](N)C(=O)N1CCn2nc(-c3ccccc3)cc2C1CCCC` (mixture of isomers) [Example 21, (2R)-3-({(2R)-2-amino-3-[(4RS)-4-butyl-2-phenyl-6,7-dihydropyrazolo[1,5-a]pyrazin-5(4H)-yl]-3-oxopropyl}dithio)-1-[(4RS)-4-butyl-2-phenyl-6,7-dihydropyrazolo[1,5-a]pyrazin-5(4H)-yl]-1-oxopropan-2-amine hydrochloride]: the values for the IC50 in assay [1], in assay [2] and in assay [3] (bound given in mM) were at most 20 µM, at most 5 µM and at most 0.01 mM, respectively.

On to `N[C@@H](CSSC[C@H](N)C(=O)N1CCn2nc(-c3ccc(Cl)cc3Cl)cc2C1CCc1ccccc1)C(=O)N1CCn2nc(-c3ccc(Cl)cc3Cl)cc2C1CCc1ccccc1` (mixture of isomers) [Example 22, (2R)-3-({(2R)-2-amino-3-[(4RS)-2-(2,4-dichlorophenyl)-4-(2-phenylethyl)-6,7-dihydropyrazolo[1,5-a]pyrazin-5(4H)-yl]-3-oxopropyl}dithio)-1-[(4RS)-2-(2,4-dichlorophenyl)-4-(2-phenylethyl)-6,7-dihydropyrazolo[1,5-a]pyrazin-5(4H)-yl]-1-oxopropan-2-amine hydrochloride], for which the IC50 was at most 20 µM in assay [1], at most 1 µM in assay [2] and at most 0.01 mM in assay [3] (bound given in mM).

`N[C@@H](CSSC[C@H](N)C(=O)N1CCn2nc(-c3ccccc3)cc2[C@@H]1CC1CCCCC1)C(=O)N1CCn2nc(-c3ccccc3)cc2[C@@H]1CC1CCCCC1` [Example 24, (2R)-3-({(2R)-2-amino-3-[(4S)-4-(cyclohexylmethyl)-2-phenyl-6,7-dihydropyrazolo[1,5-a]pyrazin-5(4H)-yl]-3-oxopropyl}dithio)-1-[(4S)-4-(cyclohexylmethyl)-2-phenyl-6,7-dihydropyrazolo[1,5-a]pyrazin-5(4H)-yl]-1-oxopropan-2-amine hydrochloride]: the IC50 was at most 15 µM in assay [1] (unit inferred), at most 1 µM in assay [2] and at most 0.01 mM in assay [3] (bound given in mM).
